pEC50, pIC50: −log10 of the molar value. The source made the active and inactive calls.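 How the source made its calls: active means compounds giving half or more protection of infected cells from virus-caused growth loss, again on retest; inactive means the rest.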 Where a SMILES comes first, the peptide text is derived from it. [ ]: non-standard residue; d: D form. The star is where a group is joined. Iva = CC[C](C)(N)C(=O)O; Boc = CC(C)(C)OC(=O)*; X8 = C1CCC(=NO*)C1
Tested on: CEM cells HIV-1 protection, formazan growth assay
Test: NCI AIDS Antiviral Assay
Conditions: for pIC50: measured here: growth of uninfected CEM cells
How it was run: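 Category rules: moderately active means at least 50% protection on retest, and confirmed active means 100% protection reproducibly. The underlying data came from a formazan growth assay in HIV-1-infected CEM cells.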

Row | SMILES | pEC50 | pIC50 | outcome
1 | Cn1c(=O)c(CC(C(=O)O)C(=O)O)nc2ccccc21 | < 3.70 | < 3.70 | 
2 | COc1cc(C2C(Cl)C(=O)N2n2cnc3ccccc3c2=O)ccc1O (stereo not drawn) | < 3.17 | 4.52 | 
3 | COc1ccc(C[N+](C)(C)N)cc1OC | < 3.70 | < 3.70 | 
4 | O=C1CC(c2[nH]nc3ccccc23)C(=O)N1c1ccccc1 (stereo not drawn) |  |  | inactive
5 | CC(C)CCCC(C)N (stereo not drawn) | < 3.70 | < 3.70 | 
6 | COc1ccc2c3csc4ccccc4c-3nc2c1 | < 3.70 | 6.37 | 
7 | CC1(C)N=C(C(N)=O)c2[nH]cnc2N1 | < 3.70 | < 3.70 | 
8 | CCOC(=O)C1(Cc2c[nH]c3ccccc23)C(O)CCCN1C(C)=O (stereo not drawn) | < 3.70 | 3.81 | 
9 | CN1CC=C(C#CC(C)(C)O)CC1 | < 3.70 | < 3.70 | 
10 | CC(C)(CN1CCCCC1)C(=O)/C=C/c1ccc(Cl)c(Cl)c1 | < 4.48 | 5.51 | 
11 | Clc1ccc2c(NCCCCN3OC3c3ccccc3)ccnc2c1 (stereo not drawn) | < 3.70 | 5.30 | 
12 | COC12COC(=O)C1C(c1ccc3c(c1)OCO3)c1cc3c(cc1O2)OCO3 (stereo not drawn) | < 3.70 | 5.04 | 
13 | O=C(/C=C\c1ccccc1)c1ccc(-c2cccc(-c3ccccc3)c2)cc1 | < 3.70 | 3.96 | 
14 | C=C1C(=O)O[C@H]2[C@H]3O[C@@H](C[C@@H]12)[C@@]1(C)CC[C@H](O1)[C@H](C)CCC[C@H]3C | < 4.70 | 5.97 | 
15 | CC(C)C(NC(=O)OC(C)(C)C)C(=O)N1CCCC1C(=O)O (stereo not drawn) (Boc-Val-Pro-OH; configuration not given here) | < 3.70 | < 3.70 | 
16 | CCC(C)(NC(=O)C(C)NC(=O)OC(C)(C)C)C(=O)NC(C)C(=O)NC(C)(CC)C(=O)ON=C1CCCC1 (stereo not drawn) (Boc-A[Iva]A[Iva]-X8; configuration not given here) | < 3.70 | 4.08 | 
17 | OC[C@H]1N[C@H](CO)[C@@H](O)[C@H]1O | < 3.70 | 3.83 | 
18 | [N-]=[N+]=Nc1ccc(S(=O)(=O)Oc2cc(OS(=O)(=O)c3ccc(N=[N+]=[N-])cc3)cc(OS(=O)(=O)c3ccc(N=[N+]=[N-])cc3)c2)cc1 | < 5.39 | < 5.39 | 
19 | CCOC(=O)/C(=C\c1c[nH]c2ccccc12)P(=O)(OCC)OCC | < 3.70 | 4.42 | 
20 | CCOCC1c2ccccc2CCN1Cc1c[nH]c2ccccc12 (stereo not drawn) | < 3.70 | 4.71 | 
21 | NC1C2CC3CC(C2)CC1(N)C3 (stereo not drawn) |  |  | inactive
22 | CCOC(=O)NC(=O)c1cn(CCCCCOC(=O)NCCCCCCNC(=O)OCCCCCn2cc(C(=O)NC(=O)OCC)c(=O)[nH]c2=O)c(=O)[nH]c1=O |  |  | inactive
23 | O=C1c2ccccc2-c2cc(N3C(=O)C=CC3=O)ccc21 | < 3.70 | 4.77 | 

Row | SMILES | pEC50 | pIC50 | outcome
24 | Cc1cn(C2CC(N)C(CN)O2)c(=O)[nH]c1=O (stereo not drawn) | < 3.70 | < 3.70 | 
25 | CCC(=O)c1c(O)c2ccccc2oc1=O | < 3.70 | < 4.00 | 
26 | COc1cc(C2c3cc4c(cc3OC(N3CCOCC3)C2C)OCO4)cc(OC)c1O (stereo not drawn) | < 3.70 | 5.07 | 
27 | O=C(/C=C/c1ccccc1)Oc1ccc(C(=O)/C=C/c2ccc(Cl)cc2)cc1 | < 4.00 | 4.35 | 
28 | C[n+]1c2ccccc2cc2c(CNC(CCCN=C(N)N)C(=O)O)cccc21 (stereo not drawn) |  |  | inactive
29 | C#C[C@]1(O)CC[C@H]2[C@@H]3CCC4=C/C(=N/OC(=O)c5cccc6c(=O)c7ccccc7[nH]c56)CC[C@@H]4[C@H]3CC[C@@]21C | < 3.70 | 4.51 | 
30 | C[Si](C)(C)C#CC(O)CS(=O)c1ccccc1 (stereo not drawn) | < 3.70 | 3.98 | 
31 | Cc1cccc(C)c1NC(=O)CCC(=O)NNC(=O)c1cc(O)c2ccccc2c1 | < 3.63 | 4.47 | 
32 | CCOC(=O)C(=O)CC1=NC2CCCCC2N(C)C1=O (stereo not drawn) | < 3.70 | < 3.70 | 
33 | Cn1c2c(c3ccccc31)CCN(CCCN1CCN(c3ccccc3)CC1)C2=O | < 4.26 | 4.35 | 
34 | CC(CC(N)C(=O)O)C(=O)O (stereo not drawn) | < 3.70 | < 3.70 | 
35 | Nc1nc(Cl)cc(NC23CC4CC(CC(C4)C2)C3)n1 | < 3.70 | < 3.70 | 
36 | C1CCC(OCc2nnn3c2CCC3)OC1 (stereo not drawn) |  |  | inactive
37 | CCN(CC)CC(=O)Nc1ccccc1C | < 4.00 | < 4.00 | 
38 | O=C(O)c1ccc(SSc2ccc(C(=O)O)cc2)cc1 | 3.91 | < 3.70 | 
39 | O=C1OC[C@@H]2CCCN2Cc2ccccc21 | < 4.06 | < 4.06 | 
40 | CCOC(=O)C1=CC(C(=O)OCC)C2C=CC1N2C(=O)OC (stereo not drawn) |  |  | inactive
41 | COC1(C)CP(=O)(OC(C)C)CC(C)=C1Cl (stereo not drawn) | < 4.70 | 5.12 | 
42 | CCC(=O)OC1CC2=CC(=O)CCC2(C)C2CCC3(C)C(OC(=O)CC)CCC3C12 (stereo not drawn) | < 3.70 | < 3.70 | 
43 | COC(=O)c1cc2c(nc1C)-c1ccccc1OS2(=O)=O |  |  | inactive
44 | CCOC(=O)NC(N(C)C(C(C)C)P(=O)(OCC)OCC)(C(F)(F)F)C(F)(F)F (stereo not drawn) | < 3.70 | < 3.70 | 
45 | CCC(CO)NC(=O)Nc1ccc(S(=O)(=O)c2ccc([N+](=O)[O-])cc2)cc1 (stereo not drawn) | < 3.70 | 4.92 | 

Reference: PubChem BioAssay AID179 (DTP/NCI, 2004)
